{
  "source": "patent US5702935A",
  "about": "“Method and compounds for inhibiting lipid biosynthesis of bacteria and plants” (priority 1994, dated 1997)",
  "key": {"[1]": {"test_system": "Brassica enoyl-ACP reductase", "settings": "read-out: steady-state Michaelis constant; cited from earlier work"}, "[2]": {"target": "T1, InhA (Mycobacterium tuberculosis, UniProt P9WGR1)", "T1 sequence (P9WGR1 whole entry, looked up)": "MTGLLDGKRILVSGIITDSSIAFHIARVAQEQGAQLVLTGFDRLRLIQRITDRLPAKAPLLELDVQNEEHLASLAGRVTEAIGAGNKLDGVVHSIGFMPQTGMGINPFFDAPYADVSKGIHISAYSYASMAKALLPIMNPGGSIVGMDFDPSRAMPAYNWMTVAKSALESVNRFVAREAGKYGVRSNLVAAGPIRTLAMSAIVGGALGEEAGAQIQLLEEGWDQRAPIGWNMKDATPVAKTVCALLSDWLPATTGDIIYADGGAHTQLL", "assay": "Microcalorimetry binding of adenine dinucleotides to InhA", "parameters": "species or system M. tuberculosis", "settings": "for binding to InhA (in words): microcalorimetry, dinucleotide 0-100 μM"}, "[3]": {"test_system": "NADH-dependent enoyl-CoA reductase of M. smegmatis", "settings": "read-out: steady-state Michaelis constant; cited from earlier work"}, "[4]": {"target": "T1, InhA", "assay": "Spectrophotometric (340 nm) assay of InhA-catalyzed NADH-dependent reduction, substrate test and steady-state kinetics"}, "[5]": {"test_system": "NC(=O)C1=CN([C@@H]2O[C@H](COP(=O)(O)OP(=O)(O)OC[C@H]3O[C@@H](n4cnc5c(N)ncnc54)[C@H](O)[C@@H]3O)[C@@H](O)[C@H]2O)C=CC1", "assay": "purified protein, by the assay type", "settings": "other: InhA-catalyzed reduction of 2-transoctenoyl-ACP, other substrate saturating"}, "[6]": {"test_system": "mycolic acid biosynthesis", "format": "biochemical, M. smegmatis"}},
  "note": "pKd: −log10 of the molar value. “Also recorded” adds a separate entry of the source.",
  "data": [
    {"compound": "NC(=O)C1=CN([C@@H]2O[C@H](COP(=O)(O)OP(=O)(O)OC[C@H]3O[C@@H](n4cnc5c(N)ncnc54)[C@H](O)[C@@H]3O)[C@@H](O)[C@H]2O)C=CC1", "note": "[NADH]", "values": [
      {"measurement": "Km", "setting": "[1]", "value": 7.6, "unit": "µM"},
      {"measurement": "binding stoichiometry, molecules per dimer of InhA", "setting": "[2]; 37° C., 50 mM Tris pH 7.3", "value": "two"},
      {"measurement": "enthalpy of binding", "setting": "[2]; 37° C., 50 mM Tris pH 7.3", "value": -13.5, "unit": "kcal/mol"},
      {"measurement": "binding to InhA (in words)", "setting": "[2]", "value": "tight and stoichiometric binding"},
      {"measurement": "pKd", "setting": "[2]; titration calorimetry, 37° C., 50 mM Tris pH 7.3, 100 μM InhA, read-out: Kd (binding constant) for binding to InhA", "value": 5.70},
      {"measurement": "Km", "setting": "[3]", "value": 21, "unit": "µM"}
    ]},
    {"compound": "2-transoctenoyl-ACP", "values": [
      {"measurement": "maximum velocity", "setting": "[4]; InhA-catalyzed reduction of 2-transoctenoyl-ACP by NADH", "value": 1570, "unit": "µM/min/mg"},
      {"measurement": "activity as substrate for InhA in the presence of NADH", "setting": "[4]; measured spectrophotometrically at 340 nm", "value": "Activity was demonstrated"},
      {"measurement": "Km", "setting": "[4]; read-out: steady-state Km, InhA-catalyzed reduction of 2-transoctenoyl-ACP, other substrate saturating", "value": 2, "unit": "µM"}
    ]},
    {"compound": "NC(=O)c1ccc[n+]([C@@H]2O[C@H](COP(=O)([O-])OP(=O)(O)OC[C@H]3O[C@@H](n4cnc5c(N)ncnc54)[C@H](O)[C@@H]3O)[C@@H](O)[C@H]2O)c1", "note": "[NAD]", "values": [
      {"measurement": "binding to InhA (in words)", "setting": "[2]", "value": "Neither NADPH, NADP nor NAD exhibited significant binding; also recorded: failed to show appreciable binding affinity"}
    ]},
    {"compound": "CCCCC/C=C/C(=O)SCCNC(=O)CCNC(=O)[C@H](O)C(C)(C)COP(=O)(O)OP(=O)(O)OC[C@H]1O[C@@H](n2cnc3c(N)ncnc32)[C@H](O)[C@@H]1OP(=O)(O)O", "note": "[octenoyl-CoA]", "values": [
      {"measurement": "Km", "setting": "[3]", "value": 232, "unit": "µM"}
    ]},
    {"compound": "InhA (Mycobacterium tuberculosis H37Rv)", "values": [
      {"measurement": "Km", "setting": "[5]", "value": 8, "unit": "µM"}
    ]},
    {"compound": "NNC(=O)c1ccncc1", "note": "[isoniazid]", "values": [
      {"measurement": "isoniazid-inhibition of mycolic acid biosynthesis (in words)", "setting": "[6]", "value": "marked resistance to isoniazid-inhibition"}
    ]},
    {"compound": "NC(=O)c1ccc[n+]([C@@H]2O[C@H](COP(=O)([O-])OP(=O)(O)OC[C@H]3O[C@@H](n4cnc5c(N)ncnc54)[C@H](OP(=O)(O)O)[C@@H]3O)[C@@H](O)[C@H]2O)c1", "note": "[NADP]", "values": [
      {"measurement": "binding to InhA (in words)", "setting": "[2]", "value": "Neither NADPH, NADP nor NAD exhibited significant binding; also recorded: failed to show appreciable binding affinity"}
    ]},
    {"compound": "NC(=O)C1=CN([C@@H]2O[C@H](COP(=O)(O)OP(=O)(O)OC[C@H]3O[C@@H](n4cnc5c(N)ncnc54)[C@H](OP(=O)(O)O)[C@@H]3O)[C@@H](O)[C@H]2O)C=CC1", "note": "[NADPH]", "values": [
      {"measurement": "binding to InhA (in words)", "setting": "[2]", "value": "Neither NADPH, NADP nor NAD exhibited significant binding; also recorded: failed to show appreciable binding affinity"}
    ]},
    {"compound": "octenoyl-ACP", "values": [
      {"measurement": "Km", "setting": "[1]", "value": "< 1", "unit": "µM"}
    ]}
  ]
}
